Patent US5891458A, “Bioerodible device for administering active ingredients” (priority 1997, dated 1999)

How the values were obtained:
[1] = design: species or system Sprague-Dawley rats; conditions: rat, in vivo
Protocol: The devices prepared in Example 2 were evaluated in ovariectomized Sprague-Dawley rats. The rats were ovariectomized 2 weeks prior to testing. On the test day the animals were anesthetized with ether and administered with either 10 ug of 17 B-estradiol in sesame oil [0.2 ml by subcutaneous (S.C.) or ingestion (I.G.) routes] or a soluble device containing an equal amount of estradiol placed buccally. Animals were kept anesthetized for approximately 10 minutes after estradiol administration. Trunk blood was collected at various times thereafter.

diestrus rat = experiment: In-vivo delivery study of histrelin buccal device: induction of ovulation in the diestrus rat; conditions: for ED50 dose (inducing ovulation): buccal tablet
Protocol: The study was designed to measure the ability of the histrelin delivered by the soluble buccal devices of the invention to induce ovulation in the diestrus rat. Devices were prepared by punching 7 mm tablets from the tray containing the lyophilized foam. Each tablet theoretically contained 297 ug of histrelin. Whole, halved and quartered tablets were then placed in the buccal cavity of diestrus rats anesthetized with ether. After 10 minutes the device was absorbed. The following day the rats were sacrificed and the oviducts removed and examined for the presence of ova.

[2] = half buccal tablet, histrelin 150 ug
[3] = quarter buccal tablet, histrelin 75 ug
[4] = whole buccal tablet, histrelin 300 ug

| time after which the device was absorbed (diestrus rat; buccal cavity of anesthetized diestrus rats) [min] | Compound | bioavailability of estradiol administered buccally [1] | ED50 dose (inducing ovulation) (diestrus rat; per body weight) [mg/kg] | ED50 dose (inducing ovulation) (diestrus rat; per rat) | inducing ovulation (result in words) (diestrus rat; buccal tablets) | # of Rats Ovulating/Total # of Rats (diestrus rat; [2]) | Ova/Rat (diestrus rat; [2]) | # of Rats Ovulating/Total # of Rats (diestrus rat; [3]) | Ova/Rat (diestrus rat; [3]) | # of Rats Ovulating/Total # of Rats (diestrus rat; [4]) | Ova/Rat (diestrus rat; [4]) |
| --- | --- | --- | --- | --- | --- | --- | --- | --- | --- | --- | --- |
|  | C[C@]12CC[C@@H]3c4ccc(O)cc4CC[C@H]3[C@@H]1CC[C@@H]2O [Estradiol, 17 B-estradiol] | greater than oral administration but less than administered by injection |  |  |  |  |  |  |  |  |  |
| 10 | CCNC(=O)[C@@H]1CCCN1C(=O)[C@H](CCCNC(=N)N)NC(=O)[C@H](CC(C)C)NC(=O)[C@@H](Cc1cn(Cc2ccccc2)cn1)NC(=O)[C@H](Cc1ccc(O)cc1)NC(=O)[C@H](CO)NC(=O)[C@H](Cc1c[nH]c2ccccc12)NC(=O)[C@H](Cc1cnc[nH]1)NC(=O)[C@@H]1CCC(=O)N1 [Histrelin] |  | ~0.3 | approximately 75 ug/rat | effective in inducing ovulation in a dose-dependent manner | 4/5 | 8 | 4/6 | 6 | 6/6 | 13 |
